Earlier results, collected in US20080107723A1, “Methods of Treating Pulmonary Distress” (priority 2006, published 2008).

B1: Pulmozyme: recombinant human Dnase administered by inhalation (protein, UniProt P24855 23-282, looked up)
Deoxyribonuclease-1: LKIAAFNIQTFGETKMSNATLVSYIVQILSRYDIALVQEVRDSHLTAVGKLLDNLNQDAPDTYHYVVSEPLGRNSYKERYLFVYRPDQVSAVDSYYYDDGCEPCGNDTFNREPAIVRFFSRFTEVREFAIVPLHAAPGDAVAEIDALYDVYLDVQEKWGLEDVMLMGDFNAGCSYVRPSQWSSIRLWTSPTFQWLIPDSADTTATPTHCAYDRIVVAGMLLRGAVVPDSALPFNFQAAYGLSDQLAQAISDHYPVEVMLK

What was measured:
[1] = administered by inhalation; CF patients
[2] = tested on: colony forming units (CFU); details: administered by inhalation; CF patients

Molecule | improvement in FEV1 [1] | reduction in colony forming units (CFU) [2]
NC[C@H]1O[C@H](O[C@H]2[C@H](O)[C@@H](O[C@H]3O[C@H](CO)[C@@H](O)[C@H](N)[C@H]3O)[C@H](N)C[C@@H]2N)[C@H](N)C[C@@H]1O [Tobramycin] | approximately 10% | about 2 log units
B1 | approximately 10% | 
